Results published in ChEMBL document CHEMBL6078677, “Discovery and optimization of tetrahydroacridine derivatives as a novel class of antibiotics against multidrug-resistant Gram-positive pathogens by targeting type I signal peptidase and disrupting bacterial membrane” (Eur J Med Chem, 2025).
Converted amounts (≈) assume the structure as drawn. The source made the active and inactive calls. The rule behind the calls is not given here.

How the values were obtained:
Cell membrane [1] = experiment: Disruption of cell membrane integrity in Staphylococcus aureus ATCC 29213 assessed as increase in red fluorescence intensity incubated for 4 hrs by SYTO-9/PI staining based LIVE/DEAD Baclight bacterial viability assay; type: subcellular
[2] = Metabolic stability in human liver microsomes assessed as hepatic extraction ratio at 100 uM preincubated for 5 mins followed by NADPH addition and measured upto 60 mins by LC-MS/MS analysis; type: ADME, Microsome; details: time < 65 min, read-out: ERH
Cell membrane [3] = experiment: Disruption of cell membrane integrity in Staphylococcus aureus ATCC 29213 assessed as appearance of shriveled surface at 0.5 to 2 times of MIC by scanning electron microscopic analysis; type: subcellular
[4] = Acute toxicity in ICR mouse model assessed as change in body weight at 25 to 100 mg/kg, IG administered for 7 days; type: organism-based; details: in vivo, po, 168 h, dose 25-100 mg/kg, time 7 day
[5] = Metabolic stability in human liver microsomes assessed as half-life at 100 uM preincubated for 5 mins followed by NADPH addition and measured upto 60 mins by LC-MS/MS analysis; type: ADME, Microsome; details: time < 65 min
[6] = Acute toxicity in ICR mouse model assessed as effect on animal survival at 25 to 100 mg/kg, IG administered for 7 days; type: organism-based; details: in vivo, po, 168 h, dose 25-100 mg/kg, time 7 day
[7] = Cytotoxicity against human HEp-2 cells assessed as reduction in cell viability incubated for 48 hrs by CCK8 assay; type: toxicity, cell-based
Staphylococcus aureus [8] = experiment: Disruption of preformed biofilm in Staphylococcus aureus ATCC 29213 assessed as increase in red fluorescence at 0.5 to 2 times of MIC measured after 72 hrs by SYTO-9/PI staining based CLSM imaging analysis; type: functional, organism-based
Staphylococcus aureus [9] = experiment: Antibacterial activity against methicillin-resistant Staphylococcus aureus YZSA-24 infected in cyclophosphamide-induced neutrophil depleted female ICR mouse model of skin infection assessed as log reduction in bacterial load at 1 %, TOP preadministered with cyclophosphamide for 5 days followed by bacterial administration and measured after 25 hrs of compound administration relative to ampicillin group; type: functional
Klebsiella pneumoniae = experiment: Antimicrobial activity against Klebsiella pneumoniae 9-1 assessed as inhibition of visible growth of bacteria incubated for 20 hrs by broth microdilution method; type: functional
[10] = Hemolytic activity in Kunming mouse erythrocytes measured after 1 hrs by absorbance based assay; type: toxicity, cell-based, Erythrocyte
Staphylococcus aureus [11] = experiment: Antibacterial activity against methicillin-resistant Staphylococcus aureus YZSA-24 infected in cyclophosphamide-induced neutrophil depleted female ICR mouse model of skin infection assessed as log reduction in bacterial load at 2.5 %, TOP preadministered with cyclophosphamide for 5 days followed by bacterial administration and measured after 25 hrs of compound administration relative to […] group; type: functional
[12] = Metabolic stability in mouse liver microsomes assessed as hepatic extraction ratio at 100 uM preincubated for 5 mins followed by NADPH addition and measured upto 60 mins by LC-MS/MS analysis; type: ADME, Microsome; details: time < 65 min, read-out: ERH
Streptococcus pyogenes = experiment: Antimicrobial activity against Streptococcus pyogenes DL02 harboring erythromycin-resistance rRNA methylase B assessed as inhibition of visible growth of bacteria incubated for 20 hrs by broth microdilution method; type: functional
Streptococcus suis = experiment: microbe, parasite or virus in culture; type: functional; details: SH0918, time 20 hrs
Description: Antimicrobial activity against Streptococcus suis SH0918 harboring erythromycin-resistance rRNA methylase B, tetracycline efflux protein O and oxazolidinone phenicol transferable resistance gene assessed as inhibition of visible growth of bacteria incubated for 20 hrs by broth microdilution method

Pseudomonas aeruginosa = experiment: Antimicrobial activity against Pseudomonas aeruginosa PA14 assessed as inhibition of visible growth of bacteria incubated for 20 hrs by broth microdilution method; type: functional
Cell membrane [13] = experiment: Disruption of cell membrane integrity in Staphylococcus aureus ATCC 29213 assessed as appearance of rupture surface at 0.5 to 2 times of MIC by scanning electron microscopic analysis; type: subcellular
Staphylococcus aureus [14] = experiment: Bactericidal activity against Staphylococcus aureus ATCC 29213 assessed as bacterial eradication at 4 times of MIC measured after 24 hrs by time-kill kinetics assay relative to control; type: functional
[15] = Acute toxicity in ICR mouse model assessed as change in lung pathology at 25 to 100 mg/kg, IG administered for 7 days by H and E staining based analysis; type: organism-based; details: in vivo, po, 168 h, dose 25-100 mg/kg, time 7 day
[16] = Metabolic stability in rat liver microsomes assessed as intrinsic clearance at 100 uM preincubated for 5 mins followed by NADPH addition and measured upto 60 mins by LC-MS/MS analysis; type: ADME, Microsome; details: time < 65 min, read-out: CLH
Staphylococcus aureus [17] = experiment: Drug resistance, ratio of MIC for Staphylococcus aureus ATCC 29213 measured after 28 days to MIC for Staphylococcus aureus ATCC 29213 measured after 20 hrs; type: functional
Staphylococcus aureus [18] = experiment: Antimicrobial activity against Staphylococcus aureus YZSA-21 harboring erythromycin resistance rRNA methylase C assessed as inhibition of visible growth of bacteria incubated for 20 hrs by broth microdilution method; type: functional
Staphylococcus aureus [19] = experiment: Antibiofilm activity in Staphylococcus aureus ATCC 29213 assessed as reduction in biofilm formation at 0.5 to 2 times of MIC measured after 72 hrs by SEM analysis; type: functional, organism-based
Staphylococcus aureus [20] = experiment: Bactericidal activity against Staphylococcus aureus ATCC 29213 assessed as bacterial killing at 8 times of MIC measured within 12 hrs by time-kill kinetics assay; type: functional, organism-based
Staphylococcus aureus [21] = experiment: Antibiofilm activity against Staphylococcus aureus ATCC 29213 assessed as eradication of preformed biofilm measured after 72 hrs by crystal violet staining based analysis; type: functional, organism-based
Staphylococcus aureus [22] = experiment: Antimicrobial activity against Staphylococcus aureus ATCC 29213 assessed as inhibition of visible growth of bacteria incubated for 20 hrs by broth microdilution method; type: functional
Enterococcus faecalis = experiment: Antimicrobial activity against Enterococcus faecalis JH2-2 assessed as inhibition of visible growth of bacteria incubated for 20 hrs by broth microdilution method; type: functional
Staphylococcus aureus [23] = experiment: microbe, parasite or virus in culture; type: functional; details: M92-1, time 20 hrs
Description: Antimicrobial activity against Staphylococcus aureus M92-1 harboring erythromycin resistance rRNA methylase B, tetracycline efflux protein L and oxazolidinone-phenicol transferable resistance gene assessed as inhibition of visible growth of bacteria incubated for 20 hrs by broth microdilution method

[24] = Cytotoxicity against human Caco-2 cells assessed as reduction in cell viability incubated for 48 hrs by CCK8 assay; type: toxicity, cell-based
[25] = Hemolytic activity in Kunming mouse erythrocytes assessed as hemolysis at 4 times of MIC measured after 1 hrs by absorbance based assay relative to control; type: toxicity, cell-based, Erythrocyte; details: read-out: Activity
[26] = Hemolytic activity in Kunming mouse erythrocytes assessed as hemolysis at 1 time of MIC measured after 1 hrs by absorbance based assay relative to control; type: toxicity, cell-based, Erythrocyte; details: read-out: Activity
Escherichia coli = experiment: Antimicrobial activity against Escherichia coli ATCC 25922 assessed as inhibition of visible growth of bacteria incubated for 20 hrs by broth microdilution method; type: functional
[27] = Metabolic stability in mouse liver microsomes assessed as intrinsic clearance at 100 uM preincubated for 5 mins followed by NADPH addition and measured upto 60 mins by LC-MS/MS analysis; type: ADME, Microsome; details: time < 65 min, read-out: CLH
[28] = Cytotoxicity against human Caco-2 cells assessed as cell viability at 8 times of MIC incubated for 48 hrs by CCK8 assay (reference value: 99.54 %); type: toxicity, cell-based; details: read-out: Activity
Enterococcus faecium [29] = experiment: Antimicrobial activity against Enterococcus faecium QF31 harboring erythromycin resistance rRNA methylase B and chloramphenicol-florfenicol resistance methylase assessed as inhibition of visible growth of bacteria incubated for 20 hrs by broth microdilution method; type: functional
[30] = Acute toxicity in ICR mouse model assessed as change in liver pathology at 25 to 100 mg/kg, IG administered for 7 days by H and E staining based analysis; type: organism-based; details: in vivo, po, 168 h, dose 25-100 mg/kg, time 7 day
Enterococcus faecium [31] = experiment: Antimicrobial activity against Enterococcus faecium MC38 harboring erythromycin resistance rRNA methylase B and oxazolidinone-phenicol transferable resistance gene assessed as inhibition of visible growth of bacteria incubated for 20 hrs by broth microdilution method; type: functional

Compound: CC1C/C(=C\c2ccc(-c3ccc(Cl)c(C(F)(F)F)c3)s2)c2nc3ccccc3c(C(=O)O)c2C1 (racemic)
- Activity (Cell membrane [1]): Dose-dependent-effect
- hepatic extraction ratio at 1 h, 100 µM [2]: < 0.27
- Activity (Cell membrane [3]): Active
- Activity [4]: Non-toxic
- half-life at 100 µM [5]: > 3.08 h
- Activity [6]: Non-toxic
- CC50 at 48 h [7]: 14.7 µg/mL (≈ 28.5 µM)
- Activity (Staphylococcus aureus [8]): Active
- Activity (Staphylococcus aureus [9]): 1.21 log10CFU/ml
- MIC (Klebsiella pneumoniae): > 128 µg/mL
- HC50 at 1 h [10]: 13.3 µg/mL
- Activity (Staphylococcus aureus [11]): 2.3 log10CFU/ml
- hepatic extraction ratio at 1 h, 100 µM [12]: < 0.26
- MIC (Streptococcus pyogenes): 16 µg/mL (≈ 31.1 µM)
- MIC (Streptococcus suis): 16 µg/mL (≈ 31.1 µM)
- MIC (Pseudomonas aeruginosa): > 128 µg/mL
- Activity (Cell membrane [13]): Active
- Activity (Staphylococcus aureus [14]): 100%
- Activity [15]: Non-toxic
- microsomal CLint at 100 µM [16]: < 7.5 µL/min/mg
- Ratio (Staphylococcus aureus [17]): 2
- MIC (Staphylococcus aureus [18]): 1 µg/mL (≈ 1.95 µM)
- Activity (Staphylococcus aureus [19]): Active; Some Sections Appeared To Be Damaged And Broken
- Activity (Staphylococcus aureus [20]): Active
- Activity (Staphylococcus aureus [21]): Dose-dependent-effect
- MIC (Staphylococcus aureus [22]): 1 µg/mL (≈ 1.95 µM)
- MIC (Enterococcus faecalis): 1 µg/mL (≈ 1.95 µM)
- MIC (Staphylococcus aureus [23]): 1 µg/mL (≈ 1.95 µM)
- CC50 at 48 h [24]: 21.9 µg/mL (≈ 42.7 µM)
- hemolysis at 1 h, 4 times of MIC [25]: 0.65%
- hemolysis at 1 h, 1 time of MIC [26]: 0%
- MIC (Escherichia coli): > 128 µg/mL
- microsomal CLint at 100 µM [27]: < 7.5 µL/min/mg
- viability at 48 h, 8 times of MIC [28]: 72.8%
- MIC (Enterococcus faecium [29]): 2 µg/mL (≈ 3.89 µM)
- Activity [30]: Non-toxic
- MIC (Enterococcus faecium [31]): 2 µg/mL (≈ 3.89 µM)
